# Tested on: luciferase-expressing artificial recombinant rotavirus
# Test: Screening test for anti-rotavirus drug using luciferase-expressing rotavirus in CV-1 cells (luminescence)
# Format: cell-based, simian rotavirus
# Protocol: CV-1 cells were seeded on 96-well culture plates at 1×10^5 cells/well on the previous day of infection. The CV-1 cells were infected with wild-type SA11 or the luciferase-expressing artificial recombinant rotavirus produced in Example 4 at an MOI of 0.001. After viral adsorption at 37° C. for 1 hour, the culture supernatant was removed, and DMEM (without FBS and with 0.5 μg/mL trypsin) containing 0, 1, 5, 10, 50, 100 or 200 μM ribavirin (Sigma-Aldrich) was added. Incubation was performed at 37° C. for 14 hours. After that, the substrate stock solution of Nano-Glo Luciferase Assay System (trade name, Promega) was added to the culture medium, and luminescence was detected with an in vivo imaging system (IVIS Spectrum, manufactured by Xenogen).
smiles,measurement,setting,value
NC(=O)c1ncn([C@@H]2O[C@H](CO)[C@@H](O)[C@H]2O)n1 [ribavirin],luminescence intensity (viral proliferation inhibitory effect),"MOI of 0.001, 0, 1, 5, 10, 50, 100 or 200 μM ribavirin, 14 hours",decreased in a ribavirin concentration-dependent manner
same,ribavirin concentration at which no luminescence was observed,"MOI of 0.001, 14 hours",≥ 50 µM

# Source: US11707516B2, “Method for producing artificial recombinant rotavirus” (Osaka University, priority 2016, dated 2023)
